In patent US20250228239A1, “MOLECULES HAVING PESTICIDAL UTILITY, AND INTERMEDIATES, COMPOSITIONS, AND PROCESSES, RELATED THERETO” (priority 2024, published 2025):
Read-outs that look alike come from different tables or passages of the source.

Assays:
[1] = tested on: Beet Armyworm (Spodoptera exigua, LAPHEG); test: Bioassays on Beet Armyworm (BAW), 128-well diet tray assay; format: in vivo; conditions: Spodoptera exigua, Beet Armyworm
How it was run: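 Mortality of second-instar larvae (1–5/well) on artificial diet treated with 50 μg/cm^2 compound, read after 5–7 days at 25° C.; values are means of eight wells.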

[2] = tested on: Cabbage Looper (Trichoplusia ni, TRIPNI); test: Bioassays on Cabbage Looper (CL), 128-well diet tray assay; format: in vivo; conditions: Trichoplusia ni, Cabbage Looper
How it was run: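 Second-instar larvae (1–5 per well) placed on artificial diet surface-treated with 50 μg/cm^2 test molecule applied in 90:10 acetone-water and dried. Held at 25° C., 14:10 light-dark, for five to seven days. Percent mortality scored per well and averaged over eight wells.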

[3] = Table ABC / ABC-DP rating, read-out: BAW rating
[4] = Table ABC / ABC-DP rating, read-out: CL rating

Structure (SMILES)	pest or weed control at 50 µg/cm2 ([1]; rating class, read-out: BAW) [%]	pest or weed control at 50 µg/cm2 ([2]; rating class, read-out: CL) [%]	pest or weed control at 50 µg/cm2 [1, 3] [%]	pest or weed control at 50 µg/cm2 [2, 4] [%]
O=C(Nc1ccc(F)c(NC(=O)C(F)F)c1F)c1cc(NC(=O)[C@H]2[C@H](c3ccc(F)c(I)c3)C2(Cl)Cl)ccc1Cl (relative stereo) [F1624, trans-2-Chloro-5-(2,2-dichloro-3-(4-fluoro-3-iodophenyl)cyclopropane-1-carboxamido)-N-(3-(2,2-difluoroacetamido)-2,4-difluorophenyl)benzamide]	50 to 100	50 to 100	–	–
CC(=O)Nc1c(F)cc(F)cc1NC(=O)c1cc(NC(=O)[C@H]2[C@H](c3cc(Cl)cc(Cl)c3)C2(Cl)Cl)ccc1Cl (relative stereo) [F1632, trans-N-(2-Acetamido-3,5-difluorophenyl)-2-chloro-5-(2,2-dichloro-3-(3,5-dichlorophenyl)cyclopropane-1-carboxamido)benzamide]	50 to 100	50 to 100	–	–
CC(=O)Nc1cc(F)cc(F)c1NC(=O)c1cc(NC(=O)[C@H]2[C@H](c3cc(Cl)cc(Cl)c3)C2(Cl)Cl)ccc1Cl (relative stereo) [F1633, trans-N-(2-Acetamido-4,6-difluorophenyl)-2-chloro-5-(2,2-dichloro-3-(3,5-dichlorophenyl)cyclopropane-1-carboxamido)benzamide]	50 to 100	50 to 100	–	–
CC(=O)Nc1cc(NC(=O)c2cc(NC(=O)[C@H]3[C@H](c4cc(Cl)cc(Cl)c4)C3(Cl)Cl)ccc2Cl)ccc1F (relative stereo) [F1638, trans-N-(3-Acetamido-4-fluorophenyl)-2-chloro-5-(2,2-dichloro-3-(3,5-dichlorophenyl)cyclopropane-1-carboxamido)benzamide]	50 to 100	50 to 100	–	–
O=C(Nc1cc(F)cc(NC(=O)C(F)(F)F)c1)c1cc(NC(=O)[C@H]2[C@H](c3cc(Cl)cc(Cl)c3)C2(Cl)Cl)ccc1Cl (relative stereo) [F1639, trans-2-Chloro-5-(2,2-dichloro-3-(3,5-dichlorophenyl)cyclopropane-1-carboxamido)-N-(3-fluoro-5-(2,2,2-trifluoroacetamido)phenyl)benzamide]	50 to 100	50 to 100	–	–
O=C(Nc1cc(NC(=O)C(F)(F)F)ccc1F)c1cc(NC(=O)[C@H]2[C@H](c3cc(Cl)cc(Cl)c3)C2(Cl)Cl)ccc1Cl (relative stereo) [F1640, trans-2-Chloro-5-(2,2-dichloro-3-(3,5-dichlorophenyl)cyclopropane-1-carboxamido)-N-(2-fluoro-5-(2,2,2-trifluoroacetamido)phenyl)benzamide]	50 to 100	50 to 100	–	–
O=C(Nc1ccc(F)c(NC(=O)C(F)(F)F)c1)c1cc(NC(=O)[C@H]2[C@H](c3cc(Cl)cc(Cl)c3)C2(Cl)Cl)ccc1Cl (relative stereo) [F1641, trans-2-Chloro-5-(2,2-dichloro-3-(3,5-dichlorophenyl)cyclopropane-1-carboxamido)-N-(4-fluoro-3-(2,2,2-trifluoroacetamido)phenyl)benzamide]	50 to 100	50 to 100	–	–
CCNC(=O)c1cc(NC(=O)[C@H]2[C@H](c3ccc(F)c(Cl)c3)C2(Cl)Cl)cc(F)c1Cl (relative stereo) [F2033, trans-2-Chloro-5-(2,2-dichloro-3-(3-chloro-4-fluorophenyl)cyclopropane-1-carboxamido)-N-ethyl-3-fluorobenzamide]	–	–	50 to 100	50 to 100
O=C(NCC(F)(F)F)c1cc(NC(=O)[C@H]2[C@H](c3ccc(F)c(Cl)c3)C2(Cl)Cl)cc(F)c1Cl (relative stereo) [F2034, trans-2-Chloro-5-(2,2-dichloro-3-(3-chloro-4-fluorophenyl)cyclopropane-1-carboxamido)-3-fluoro-N-(2,2,2-trifluoroethyl)benzamide]	–	–	50 to 100	50 to 100
CCNC(=O)c1cc(NC(=O)[C@H]2[C@H](c3ccc(F)c(Cl)c3)C2(Cl)Cl)cc(Cl)c1C (relative stereo) [F2041, trans-3-Chloro-5-(2,2-dichloro-3-(3-chloro-4-fluorophenyl)cyclopropane-1-carboxamido)-N-ethyl-2-methylbenzamide]	–	–	50 to 100	50 to 100
O=C(NCC(F)(F)F)c1cc(NC(=O)[C@H]2[C@H](c3ccc(F)c(Cl)c3)C2(Cl)Cl)cc(Cl)c1F (relative stereo) [F2045, trans-3-Chloro-5-(2,2-dichloro-3-(3-chloro-4-fluorophenyl)cyclopropane-1-carboxamido)-2-fluoro-N-(2,2,2-trifluoroethyl)benzamide]	–	–	50 to 100	50 to 100
O=C(NCC(F)(F)C(F)(F)F)c1cc(NC(=O)[C@H]2[C@H](c3ccc(F)c(Cl)c3)C2(Cl)Cl)cc(Cl)c1F (relative stereo) [F2046, trans-3-Chloro-5-(2,2-dichloro-3-(3-chloro-4-fluorophenyl)cyclopropane-1-carboxamido)-2-fluoro-N-(2,2,3,3,3-pentafluoropropyl)benzamide]	–	–	50 to 100	50 to 100
CCNC(=O)c1cc(NC(=O)[C@H]2[C@H](c3ccc(F)c(Cl)c3)C2(Cl)Cl)cc(Cl)c1F (relative stereo) [F2047, trans-3-Chloro-5-(2,2-dichloro-3-(3-chloro-4-fluorophenyl)cyclopropane-1-carboxamido)-N-ethyl-2-fluorobenzamide]	–	–	50 to 100	50 to 100
O=C(NCCCCl)c1cc(NC(=O)[C@H]2[C@H](c3ccc(F)c(Cl)c3)C2(Cl)Cl)cc(Cl)c1F (relative stereo) [F2048, trans-3-Chloro-N-(3-chloropropyl)-5-(2,2-dichloro-3-(3-chloro-4-fluorophenyl)cyclopropane-1-carboxamido)-2-fluorobenzamide]	–	–	50 to 100	50 to 100
O=C(NCC(F)(F)F)c1cc(NC(=O)[C@H]2[C@H](c3ccc(F)c(Cl)c3)C2(Cl)Cl)cc(F)c1F (relative stereo) [F2049, trans-5-(2,2-Dichloro-3-(3-chloro-4-fluorophenyl)cyclopropane-1-carboxamido)-2,3-difluoro-N-(2,2,2-trifluoroethyl)benzamide]	–	–	50 to 100	50 to 100
O=C(NCC(F)(F)C(F)(F)F)c1cc(NC(=O)[C@H]2[C@H](c3ccc(F)c(Cl)c3)C2(Cl)Cl)cc(F)c1F (relative stereo) [F2050, trans-5-(2,2-Dichloro-3-(3-chloro-4-fluorophenyl)cyclopropane-1-carboxamido)-2,3-difluoro-N-(2,2,3,3,3-pentafluoropropyl)benzamide]	–	–	50 to 100	50 to 100
CCNC(=O)c1cc(NC(=O)[C@H]2[C@H](c3ccc(F)c(Cl)c3)C2(Cl)Cl)cc(F)c1F (relative stereo) [F2051, trans-5-(2,2-Dichloro-3-(3-chloro-4-fluorophenyl)cyclopropane-1-carboxamido)-N-ethyl-2,3-difluorobenzamide]	–	–	50 to 100	50 to 100
